Assay results published in PubChem BioAssay (NCI).
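Abbreviation: GI50, concentration required for 50% inhibition of growth. TGI is the concentration that stops growth completely.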

How the values were obtained:
Experiment in all cases: NCI-60 cell line screen, 384-well format
SNB-19 CNS = test system: SNB-19 CNS
SF-539 CNS = test system: SF-539 CNS
SR leukemia = test system: SR leukemia
HCT-15 colon = test system: HCT-15 colon
SNB-75 CNS = test system: SNB-75 CNS
NCI-H226 lung = test system: NCI-H226 lung
NCI-H522 lung = test system: NCI-H522 lung
KM12 colon = test system: KM12 colon
A549 NSCLC = test system: A549 NSCLC
TK-10 renal = test system: TK-10 renal
SK-MEL-2 melanoma = test system: SK-MEL-2 melanoma
RXF 393 renal = test system: RXF 393 renal
HT29 colon = test system: HT29 colon
OVCAR-8 ovarian = test system: OVCAR-8 ovarian
NCI/ADR-RES ovarian = test system: NCI/ADR-RES ovarian
PC-3 prostate = test system: PC-3 prostate
NCI-H23 lung = test system: NCI-H23 lung
OVCAR-3 ovarian = test system: OVCAR-3 ovarian
EKVX NSCLC = test system: EKVX NSCLC
MDA-MB-435 melanoma = test system: MDA-MB-435 melanoma
HCT-116 colon = test system: HCT-116 colon
SF-295 CNS = test system: SF-295 CNS
OVCAR-4 ovarian = test system: OVCAR-4 ovarian
BT-549 breast = test system: BT-549 breast
OVCAR-5 ovarian = test system: OVCAR-5 ovarian
ACHN renal = test system: ACHN renal
HOP-92 NSCLC = test system: HOP-92 NSCLC
CAKI-1 renal = test system: CAKI-1 renal
NCI-H322M lung = test system: NCI-H322M lung
NCI-H460 NSCLC = test system: NCI-H460 NSCLC
SF-268 CNS = test system: SF-268 CNS
SK-OV-3 ovarian = test system: SK-OV-3 ovarian
HS 578T breast = test system: HS 578T breast
SK-MEL-5 melanoma = test system: SK-MEL-5 melanoma
786-0 renal = test system: 786-0 renal
DU-145 prostate = test system: DU-145 prostate
UACC-257 melanoma = test system: UACC-257 melanoma
MCF7 breast = test system: MCF7 breast
U251 glioblastoma = test system: U251 glioblastoma
HOP-62 NSCLC = test system: HOP-62 NSCLC
HL-60(TB) leukemia = test system: HL-60(TB) leukemia
CCRF-CEM leukemia = test system: CCRF-CEM leukemia
IGROV1 ovarian = test system: IGROV1 ovarian
T-47D breast = test system: T-47D breast
SN12C renal = test system: SN12C renal
SW-620 colon = test system: SW-620 colon
K-562 leukemia = test system: K-562 leukemia
MOLT-4 leukemia = test system: MOLT-4 leukemia
HCC-2998 colon = test system: HCC-2998 colon
MDA-MB-468 breast = test system: MDA-MB-468 breast
A498 renal = test system: A498 renal
RPMI-8226 leukemia = test system: RPMI-8226 leukemia
UO-31 renal = test system: UO-31 renal

SMILES: COC(=O)N1c2ccc3c(nc(Cc4ccccc4)n3[C@H]3CCC[C@H](C(=O)O)C3)c2CC[C@@H]1C
- GI50 (SNB-19 CNS): 9.78 µM
- TGI (SNB-19 CNS): > 100 µM
- GI50 (SF-539 CNS): 20.4 µM
- TGI (SF-539 CNS): > 100 µM
- GI50 (SR leukemia): 1490 nM
- TGI (SR leukemia): 18.3 µM
- GI50 (HCT-15 colon): 14.1 µM
- TGI (HCT-15 colon): > 100 µM
- GI50 (SNB-75 CNS): > 100 µM
- TGI (SNB-75 CNS): > 100 µM
- GI50 (NCI-H226 lung): 2080 nM
- TGI (NCI-H226 lung): 40.2 µM
- GI50 (NCI-H522 lung): 1600 nM
- TGI (NCI-H522 lung): 18.7 µM
- GI50 (KM12 colon): 14.7 µM
- TGI (KM12 colon): > 100 µM
- GI50 (A549 NSCLC): 26.6 µM
- TGI (A549 NSCLC): > 100 µM
- GI50 (TK-10 renal): 2160 nM
- TGI (TK-10 renal): 37.4 µM
- GI50 (SK-MEL-2 melanoma): 14.7 µM
- TGI (SK-MEL-2 melanoma): > 100 µM
- GI50 (RXF 393 renal): 4.47 µM
- TGI (RXF 393 renal): 29.5 µM
- GI50 (HT29 colon): 6.35 µM
- TGI (HT29 colon): > 100 µM
- GI50 (OVCAR-8 ovarian): 6.82 µM
- TGI (OVCAR-8 ovarian): 54.4 µM
- GI50 (NCI/ADR-RES ovarian): 82.9 µM
- TGI (NCI/ADR-RES ovarian): > 100 µM
- GI50 (PC-3 prostate): 4.78 µM
- TGI (PC-3 prostate): > 100 µM
- GI50 (NCI-H23 lung): 20 µM
- TGI (NCI-H23 lung): > 100 µM
- GI50 (OVCAR-3 ovarian): 5.8 µM
- TGI (OVCAR-3 ovarian): 75 µM
- GI50 (EKVX NSCLC): 47 µM
- TGI (EKVX NSCLC): > 100 µM
- GI50 (MDA-MB-435 melanoma): 14.5 µM
- TGI (MDA-MB-435 melanoma): > 100 µM
- GI50 (HCT-116 colon): 13.9 µM
- TGI (HCT-116 colon): > 100 µM
- GI50 (SF-295 CNS): 22 µM
- TGI (SF-295 CNS): > 100 µM
- GI50 (OVCAR-4 ovarian): 5.43 µM
- TGI (OVCAR-4 ovarian): 31 µM
- GI50 (BT-549 breast): 2670 nM
- TGI (BT-549 breast): 37.6 µM
- GI50 (OVCAR-5 ovarian): 12.5 µM
- TGI (OVCAR-5 ovarian): 84.7 µM
- GI50 (ACHN renal): 14.5 µM
- TGI (ACHN renal): > 100 µM
- GI50 (HOP-92 NSCLC): 3.5 µM
- TGI (HOP-92 NSCLC): 81.9 µM
- GI50 (CAKI-1 renal): 1480 nM
- TGI (CAKI-1 renal): > 100 µM
- GI50 (NCI-H322M lung): 11.1 µM
- TGI (NCI-H322M lung): 89.7 µM
- GI50 (NCI-H460 NSCLC): 31.5 µM
- TGI (NCI-H460 NSCLC): > 100 µM
- GI50 (SF-268 CNS): 24.2 µM
- TGI (SF-268 CNS): > 100 µM
- GI50 (SK-OV-3 ovarian): 18.9 µM
- TGI (SK-OV-3 ovarian): > 100 µM
- GI50 (HS 578T breast): 1670 nM
- TGI (HS 578T breast): 33.7 µM
- GI50 (SK-MEL-5 melanoma): 2540 nM
- TGI (SK-MEL-5 melanoma): 15.6 µM
- GI50 ([…]-0 renal): 6.57 µM
- TGI (786-0 renal): > 100 µM
- GI50 (DU-145 prostate): 26.8 µM
- TGI (DU-145 prostate): > 100 µM
- GI50 (UACC-257 melanoma): 5.22 µM
- TGI (UACC-257 melanoma): 82 µM
- GI50 (MCF7 breast): 692 nM
- TGI (MCF7 breast): 33.4 µM
- GI50 (U251 glioblastoma): 25 µM
- TGI (U251 glioblastoma): > 100 µM
- GI50 (HOP-62 NSCLC): 8.43 µM
- TGI (HOP-62 NSCLC): > 100 µM
- GI50 (HL-60(TB) leukemia): 32.2 nM
- TGI (HL-60(TB) leukemia): 1510 nM
- GI50 (CCRF-CEM leukemia): 1830 nM
- TGI (CCRF-CEM leukemia): 19.2 µM
- GI50 (IGROV1 ovarian): 7.99 µM
- TGI (IGROV1 ovarian): 77.4 µM
- GI50 (T-47D breast): 10 µM
- TGI (T-47D breast): > 100 µM
- GI50 (SN12C renal): 11.5 µM
- TGI (SN12C renal): > 100 µM
- GI50 (SW-620 colon): > 100 µM
- TGI (SW-620 colon): > 100 µM
- GI50 (K-562 leukemia): 3.06 µM
- TGI (K-562 leukemia): > 100 µM
- GI50 (MOLT-4 leukemia): 1940 nM
- TGI (MOLT-4 leukemia): 16.5 µM
- GI50 (HCC-2998 colon): 2050 nM
- TGI (HCC-2998 colon): 11.8 µM
- GI50 (MDA-MB-468 breast): 8.31 µM
- TGI (MDA-MB-468 breast): 61.2 µM
- GI50 (A498 renal): 24.9 µM
- TGI (A498 renal): > 100 µM
- GI50 (RPMI-8226 leukemia): 133 nM
- TGI (RPMI-8226 leukemia): 314 nM
- GI50 (UO-31 renal): 7.99 µM
- TGI (UO-31 renal): > 100 µM
